Reference: patent US12458021B2, “Microbiocidal derivatives” (SYNGENTA CROP PROTECTION AG, priority 2019, dated 2025)

Experiments:
Alternaria solani = Alternaria solani / tomato / leaf disc (early blight); type: in vivo; conditions: foliar, tomato leaf disks cv. Baby, inoculated 2 days after application, assessed 5-7 days after application, read-out: control of Alternaria solani (percent disease control compared to untreated)
Description: Example B1: Alternaria solani/Tomato/Leaf Disc (Early Blight) Tomato leaf disks cv. Baby are placed on agar in multiwell plates (24-well format) and sprayed with the formulated test compound diluted in water. The leaf disks are inoculated with a spore suspension of the fungus 2 days after application. The inoculated leaf disks are incubated at 23° C./21° C. […] […]-185.

[1] = system: Glomerella lagenarium (Colletotrichum lagenarium); assay: Glomerella lagenarium (Colletotrichum lagenarium) / liquid culture (anthracnose); type: cell-based; conditions: Colletotrichum orbiculare, PDB potato dextrose broth, 24° C., 3-4 days after application, read-out: control of Glomerella lagenarium (inhibition of growth, photometric)
In short: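 Fungal growth inhibition measured photometrically 3-4 days post-application at 24° C. Spores were mixed directly into potato dextrose broth and dispensed onto test compound supplied in DMSO.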

[2] = system: Phaeosphaeria nodorum (Septoria nodorum); assay: Phaeosphaeria nodorum (Septoria nodorum) / wheat / leaf disc preventative (glume blotch); type: in vivo; conditions: Parastagonospora nodorum, foliar, wheat leaf segments cv. Kanzler, inoculated 2 days after application, assessed 5-7 days after application, read-out: control of Phaeosphaeria nodorum (percent disease control compared to untreated)
Description: Example B6: Phaeosphaeria nodorum (Septoria nodorum)/Wheat/Leaf Disc Preventative (Glume Blotch) Wheat leaf segments cv. Kanzler are placed on agar in a multiwell plate (24-well format) and sprayed with the formulated test compound diluted in water. The leaf disks are inoculated with a spore suspension of the fungus 2 days after application. The inoculated test leaf disks are incubated at 20° C. and 75% rh under a light regime of 12 h light/12 h darkness in a climate cabinet and the activity of a compound is assessed as percent disease control compared to untreated when an appropriate level of disease damage appears in untreated check leaf disks (5-7 days after application). […] […]-190.

[3] = system: Monographella nivalis (Microdochium nivale); assay: Monographella nivalis (Microdochium nivale) / liquid culture (foot rot cereals); type: cell-based; conditions: PDB potato dextrose broth, 24° C., 4-5 days after application, read-out: control of Monographella nivalis (inhibition of growth, photometric)
In short: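 Growth inhibition measured by photometry 4-5 days post-application at 24° C. Compound was dispensed as DMSO solution, then PDB broth containing conidia from cryogenic storage was added.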

[4] = system: Mycosphaerella arachidis (Cercospora arachidicola); assay: Mycosphaerella arachidis (Cercospora arachidicola) / liquid culture (early leaf spot); type: cell-based; conditions: PDB potato dextrose broth, 24° C., 4-5 days after application, read-out: control of Mycosphaerella arachidis (inhibition of growth, photometric)
Description: Example B8: Mycosphaerella arachidis (Cercospora arachidicola)/Liquid Culture (Early Leaf Spot) Conidia of the fungus from cryogenic storage are directly mixed into nutrient broth (PDB potato dextrose broth). After placing a (DMSO) solution of test compound into a microtiter plate (96-well format), the nutrient broth containing the fungal spores is added. The test plates are incubated at 24° C. and the inhibition of growth is determined photometrically 4-5 days after application. […] […]-180.

[5] = system: Puccinia recondita f. sp. tritici; assay: Puccinia recondita f. sp. tritici / wheat / leaf disc preventative (brown rust); type: in vivo; conditions: foliar, wheat leaf segments cv. Kanzler, inoculated 1 day after application, assessed 7-9 days after application, read-out: control of Puccinia recondita f. sp. tritici, preventative (percent disease control compared to untreated)
In short: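 Wheat leaf segments (cv. Kanzler) on agar were sprayed with formulated compound, then inoculated with spores 1 day later. Segments were incubated at 19 °C, 75% rh with 12 h light/dark. Percent disease control versus untreated was scored 7–9 days after application.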

[6] = system: Mycosphaerella graminicola (Septoria tritici); assay: Mycosphaerella graminicola (Septoria tritici) / liquid culture (Septoria blotch); type: cell-based; conditions: Zymoseptoria tritici, PDB potato dextrose broth, 24° C., 4-5 days after application, read-out: control of Mycosphaerella graminicola (inhibition of growth, photometric)
In short: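 Fungal growth inhibition was read photometrically 4-5 days after application. Compound was dosed from a DMSO solution into liquid cultures of spores in potato dextrose broth, incubated at 24° C.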

[7] = system: Magnaporthe grisea (Pyricularia oryzae); assay: whole plant or invertebrate; type: in vivo; conditions: foliar, read-out: control of Magnaporthe grisea (percent disease control compared to untreated)
[8] = system: Blumeria graminis f. sp. tritici (Erysiphe graminis f. sp. tritici); assay: Blumeria graminis f. sp. tritici / wheat / leaf disc preventative (powdery mildew on wheat); type: in vivo; conditions: foliar, wheat leaf segments cv. Kanzler, inoculated 1 day after application, assessed 6-8 days after application, read-out: control of Blumeria graminis f. sp. tritici (percent disease control compared to untreated)
Excerpt: Example B4: Blumeria graminis f. sp. tritici (Erysiphe graminis f. sp. tritici)/Wheat/Leaf Disc Preventative (Powdery Mildew on Wheat) Wheat leaf segments cv. Kanzler are placed on agar in a multiwell plate (24-well format) and sprayed with the formulated test compound diluted in water. The leaf disks are inoculated by shaking powdery mildew infected plants above the test plates 1 day after application. […] […]-192.

Pyrenophora teres = Pyrenophora teres / barley / leaf disc preventative (net blotch); type: in vivo; conditions: foliar, barley leaf segments cv. Hasso, inoculated 2 days after application, assessed 5-7 days after application, read-out: control of Pyrenophora teres (disease control compared to untreated)
Description: Example B13: Pyrenophora teres/Barley/Leaf Disc Preventative (Net Blotch) Barley leaf segments cv. Hasso are placed on agar in a multiwell plate (24-well format) and sprayed with the formulated test compound diluted in water. The leaf segments are inoculated with a spore suspension of the fungus 2 days after application. The inoculated leaf segments are incubated at 20° C. and 65% rh under a light regime of 12 h light/12 h darkness in a climate cabinet and the activity of a compound is assessed as disease control compared to untreated when an appropriate level of disease damage appears in untreated check leaf segments (5-7 days after application). […] […]-185.

COc1ccc(Nc2cc(F)cc(F)c2)nc1C(=O)NC1CCc2ccc(C(F)(F)F)cc21 (stereo not shown) [Compound P-56, 6-(3,5-difluoroanilino)-3-methoxy-N-[6-(trifluoromethyl)indan-1-yl]pyridine-2-carboxamide]
≥ 80%: pest or weed control at 200 ppm (Alternaria solani) | inhibition at 20 ppm [1] | pest or weed control at 200 ppm [2] | inhibition at 20 ppm [3] | inhibition at 20 ppm [4] | pest or weed control at 200 ppm [5] | inhibition at 20 ppm [6]

COc1ccc(Nc2cnsc2)nc1C(=O)NC1CCc2cc(C(F)(F)F)ccc21 (stereo not shown) [Compound P-79, 6-(isothiazol-4-ylamino)-3-methoxy-N-[5-(trifluoromethyl)indan-1-yl]pyridine-2-carboxamide]
≥ 80%: inhibition at 20 ppm [1] | inhibition at 20 ppm [3] | inhibition at 20 ppm [4] | pest or weed control at 200 ppm [5] | inhibition at 20 ppm [6]

CC1(C)CCC1NC(=O)c1nc(Nc2cc(F)cc(F)c2)ccc1OC(F)F (stereo not shown) [Compound P-46, 6-(3,5-difluoroanilino)-3-(difluoromethoxy)-N-(2,2-dimethylcyclobutyl)pyridine-2-carboxamide]
≥ 80%: inhibition at 20 ppm [1] | pest or weed control at 200 ppm [2] | inhibition at 20 ppm [3] | inhibition at 20 ppm [4] | pest or weed control at 200 ppm [7] | inhibition at 20 ppm [6]

COc1ccc(Nc2cc(F)cc(F)c2)nc1C(=O)NCCOc1ccc(F)cc1 [Compound P-27, 6-(3,5-difluoroanilino)-N-[2-(4-fluorophenoxy)ethyl]-3-methoxy-pyridine-2-carboxamide]
≥ 80%: inhibition at 20 ppm [1] | pest or weed control at 200 ppm [2] | inhibition at 20 ppm [3] | inhibition at 20 ppm [4] | pest or weed control at 200 ppm [5] | pest or weed control at 200 ppm [7] | inhibition at 20 ppm [6]

COc1ccc(Nc2cc(F)cc(F)c2)nc1C(=O)NCc1cc(F)cc(F)c1 [Compound P-26, 6-(3,5-difluoroanilino)-N-[(3,5-difluorophenyl)methyl]-3-methoxy-pyridine-2-carboxamide]
≥ 80%: inhibition at 20 ppm [1] | pest or weed control at 200 ppm [8] | pest or weed control at 200 ppm [2] | inhibition at 20 ppm [3] | inhibition at 20 ppm [4] | pest or weed control at 200 ppm [5] | pest or weed control at 200 ppm [7] | pest or weed control at 200 ppm (Pyrenophora teres) | inhibition at 20 ppm [6]

COc1ccc(Nc2cc(F)cc(F)c2)nc1C(=O)NCC(C)c1ccccc1 (stereo not shown) [Compound P-23, 6-(3,5-difluoroanilino)-3-methoxy-N-(2-phenylpropyl)pyridine-2-carboxamide]
≥ 80%: inhibition at 20 ppm [1] | inhibition at 20 ppm [3] | inhibition at 20 ppm [4] | pest or weed control at 200 ppm [5] | pest or weed control at 200 ppm [7] | inhibition at 20 ppm [6]

COc1ccc(Nc2cc(F)cc(F)c2)nc1C(=O)NC1CCc2cc(C(F)(F)F)ccc21 (stereo not shown) [Compound P-55, 6-(3,5-difluoroanilino)-3-methoxy-N-[5-(trifluoromethyl)indan-1-yl]pyridine-2-carboxamide]
≥ 80%: pest or weed control at 200 ppm (Alternaria solani) | inhibition at 20 ppm [1] | pest or weed control at 200 ppm [2] | inhibition at 20 ppm [3] | inhibition at 20 ppm [4] | pest or weed control at 200 ppm [5] | pest or weed control at 200 ppm [7] | inhibition at 20 ppm [6]

COc1ccc(Nc2cc(F)nc(F)c2)nc1C(=O)NC(C)CCCC(C)C (stereo not shown) [Compound P-102, 6-[(2,6-difluoro-4-pyridyl)amino]-N-(1,5-dimethylhexyl)-3-methoxy-pyridine-2-carboxamide]
≥ 80%: inhibition at 20 ppm [1] | inhibition at 20 ppm [3] | inhibition at 20 ppm [4] | pest or weed control at 200 ppm [5] | pest or weed control at 200 ppm [7] | pest or weed control at 200 ppm (Pyrenophora teres) | inhibition at 20 ppm [6]

COc1ccc(Nc2cc(F)cc(F)c2)nc1C(=O)NCc1ccc(Oc2ccccc2)cc1 [Compound P-57, 6-(3,5-difluoroanilino)-3-methoxy-N-[(4-phenoxyphenyl)methyl]pyridine-2-carboxamide]
≥ 80%: inhibition at 20 ppm [1] | pest or weed control at 200 ppm [8] | pest or weed control at 200 ppm [2] | inhibition at 20 ppm [3] | inhibition at 20 ppm [4] | pest or weed control at 200 ppm [5] | pest or weed control at 200 ppm [7] | pest or weed control at 200 ppm (Pyrenophora teres) | inhibition at 20 ppm [6]

COc1ccc(Nc2cc(F)cc(F)c2)nc1C(=O)NCc1ccccc1 [Compound P-25, N-benzyl-6-(3,5-difluoroanilino)-3-methoxy-pyridine-2-carboxamide]
≥ 80%: inhibition at 20 ppm [1] | pest or weed control at 200 ppm [8] | pest or weed control at 200 ppm [2] | inhibition at 20 ppm [3] | pest or weed control at 200 ppm [5] | pest or weed control at 200 ppm [7] | inhibition at 20 ppm [6]

COc1ccc(Nc2cnsc2)nc1C(=O)NC(C)CCCC(C)C (stereo not shown) [Compound P-36, N-(1,5-dimethylhexyl)-6-(isothiazol-4-ylamino)-3-methoxy-pyridine-2-carboxamide]
≥ 80%: inhibition at 20 ppm [1] | inhibition at 20 ppm [3] | inhibition at 20 ppm [4] | inhibition at 20 ppm [6]

COc1ccc(Nc2cccc(C#N)c2)nc1C(=O)NC(C)(C)C [Compound P-146, N-tert-butyl-6-(3-cyanoanilino)-3-methoxy-pyridine-2-carboxamide]
≥ 80%: pest or weed control at 200 ppm (Alternaria solani) | inhibition at 20 ppm [1] | pest or weed control at 200 ppm [2] | inhibition at 20 ppm [3] | pest or weed control at 200 ppm [5] | pest or weed control at 200 ppm [7] | inhibition at 20 ppm [6]
